In the NIST ThermoML archive (doi:10.1021/acs.jced.5b00682):

Experiments:
[1] = 101.33 kPa, Liquid, Alternating current cell with electrodes
[2] = xn = mol fraction of the nth substance listed; settings: 101 kPa, Liquid, Frequency=0.001 MHz, Alternating current cell with electrodes

O=[N+]([O-])[O-].[K+] [potassium nitrate]
[1]
Settings	electrical conductivity [S/m]
618.5 K	64.7
623.5 K	66.2
624.6 K	66.5
626.5 K	67.1
627.9 K	67.5
628.4 K	67.7
628.5 K	67.7
630.5 K	68.3
631.5 K	68.5
633.5 K	69.1
633.6 K	69.1
633.8 K	69.2
636.7 K	70.1
638.5 K	70.6
648.5 K	73.4
649.6 K	73.7
653.5 K	74.9
658.5 K	76.3
659.6 K	76.6
663.5 K	77.7
665 K	78.2

O=[N+]([O-])[O-].[Na+] [sodium nitrate]
[1]
Settings	electrical conductivity [S/m]
583 K	98.7
593 K	103
603 K	108
613 K	112
623 K	116
633 K	121
643 K	125

[Cl-].[Cs+] [cesium chloride] + [Cl-].[Li+]
electrical conductivity [S/m], [2]
Settings	x1 = 0.42	x1 = 0.425
593.5 K	33.3	–
598.5 K	35.5	–
603 K	–	33.3
603.5 K	37.9	–
608 K	–	35.5
610.5 K	41.1	–
613 K	–	37.5
613.5 K	42.4	–
618 K	–	39.8
623 K	–	42
623.5 K	47.1	–
628 K	–	44.2
628.5 K	49.5	–
629 K	52.4	–
633 K	–	46.5
633.5 K	52	–
638 K	57.1	48.8
643 K	–	51.2
643.5 K	57	–
648 K	–	53.4
650 K	62.1	–
650.5 K	60.5	–
653 K	–	55.9
653.5 K	62	–
658 K	66.5	58.2
663 K	–	60.6
663.5 K	67.1	–
668 K	–	63
670 K	72.1	–
670.5 K	70.6	–
673 K	–	65.4
673.5 K	72.1	–
678 K	76.6	67.8
683 K	–	70.1
683.5 K	77.2	–
688 K	–	72.5
690 K	82.2	–
690.5 K	80.6	–
693 K	–	74.9
693.5 K	82.2	–
698 K	86.9	77.1
703 K	–	79.6
703.5 K	87	–
708 K	–	81.7
710 K	91.8	–
710.5 K	90.2	–
713 K	–	84
718 K	97.1	86.3
723 K	–	88.4
